Measured values from the supplement of paper PMC5908809.

Assays:
[1] = test system: NKL (IL-2 2.5 ng/mL); experiment: drug sensitivity score (DSS) (DSS units); higher = more sensitive; extreme values may be limits of the assay; settings: 72 h
[2] = test system: KAI3 (IL-2 2.5 ng/mL); experiment: as above; settings: 72 h
[3] = test system: NK-92 (IL-2 2.5 ng/mL); experiment: as above; settings: 72 h
[4] = test system: normal primary NK cells, pool 2 (3 donors) (IL-2 2.5 ng/mL); experiment: as above; settings: 72 h
[5] = test system: DERL-7 (IL-2 2.5 ng/mL); experiment: as above; settings: 72 h
[6] = test system: NK-YS (IL-2 2.5 ng/mL); experiment: as above; settings: 72 h
[7] = test system: normal primary NK cells, pool 1 (3 donors), resting (IL-2 0 ng/mL); experiment: as above; settings: 72 h
[8] = test system: KHYG-1 (IL-2 2.5 ng/mL); experiment: as above; settings: 72 h
[9] = test system: normal primary NK cells, pool 3 (3 donors) (IL-2 2.5 ng/mL); experiment: as above; settings: 72 h
[10] = test system: YT (IL-2 2.5 ng/mL); experiment: as above; settings: 72 h
[11] = test system: normal primary NK cells, pool 1 (3 donors) (IL-2 2.5 ng/mL); experiment: as above; settings: 72 h
[12] = test system: SNK-6 (IL-2 2.5 ng/mL); experiment: as above; settings: 72 h
[13] = test system: IMC-1 (IL-2 20 ng/mL); experiment: as above; settings: 72 h
[14] = test system: NKL (IL-2 2.5 ng/mL); experiment: percent inhibition of viability; higher = more inhibition; settings: 72 h
[15] = test system: KAI3 (IL-2 2.5 ng/mL); experiment: as above; settings: 72 h
[16] = test system: NK-92 (IL-2 2.5 ng/mL); experiment: as above; settings: 72 h
[17] = test system: normal primary NK cells, pool 2 (3 donors) (IL-2 2.5 ng/mL); experiment: as above; settings: 72 h
[18] = test system: DERL-7 (IL-2 2.5 ng/mL); experiment: as above; settings: 72 h
[19] = test system: NK-YS (IL-2 2.5 ng/mL); experiment: as above; settings: 72 h
[20] = test system: normal primary NK cells, pool 1 (3 donors), resting (IL-2 0 ng/mL); experiment: as above; settings: 72 h
[21] = test system: KHYG-1 (IL-2 2.5 ng/mL); experiment: as above; settings: 72 h
[22] = test system: normal primary NK cells, pool 3 (3 donors) (IL-2 2.5 ng/mL); experiment: as above; settings: 72 h
[23] = test system: YT (IL-2 2.5 ng/mL); experiment: as above; settings: 72 h
[24] = test system: normal primary NK cells, pool 1 (3 donors) (IL-2 2.5 ng/mL); experiment: as above; settings: 72 h
[25] = test system: SNK-6 (IL-2 2.5 ng/mL); experiment: as above; settings: 72 h
[26] = test system: IMC-1 (IL-2 20 ng/mL); experiment: as above; settings: 72 h
[27] = test system: normal NK cells expanded with K562-aAPC; experiment: drug sensitivity score (DSS) (DSS units); higher = more sensitive; extreme values may be limits of the assay; settings: 72 h; IL-2 2.5 ng/mL
Procedure: (§1)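 Drug sensitivity and resistance testing on K562-aAPC-expanded normal NK cells: 5 concentrations (10-fold steps over a 10,000-fold range), 72 h at 37 °C, viability by CellTiter-Glo normalised to DMSO and benzethonium chloride controls; DSS from the fitted curve.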

[28] = test system: normal NK cells expanded with K562-aAPC; experiment: percent inhibition of viability; higher = more inhibition; settings: 72 h, IL-2 2.5 ng/mL
Procedure: as §1

CC(C)[C@H](C(=O)Nc1ccc(C(=O)NO)cc1)c1ccccc1 [AR-42] (max concentration tested 10000 nM)
Settings	drug sensitivity score
[1]	18.9
[2]	24.6
[3]	22.9
[4]	15.4
[5]	17.7
[6]	14.8
[7]	15.9
[8]	19.4
[9]	15
[10]	14.9
[11]	16.6
[12]	18.9
[13]	18.3
[27]	17.3

percent inhibition of viability [%]
Settings	1 nM	10 nM	100 nM	1000 nM	10000 nM
[14]	-5.13	-4.69	35.2	77.5	107
[15]	-2.48	10.7	56.8	93.1	109
[16]	-16.8	-2.43	34.6	104	109
[17]	-13.5	-9.96	3.39	82.8	94.9
[18]	-0.01	2.48	-2.69	100	101
[19]	-6.36	-5.82	4.66	76.3	108
[20]	-9.37	-0.47	13.4	77.4	88.7
[21]	-2.7	-4.06	8.15	104	109
[22]	-3.19	-1.6	-0.03	82	98.4
[23]	-2.57	0.39	5.64	75.6	108
[24]	2.55	6.41	6.74	85.7	97.5
[25]	-0.12	1.49	22.2	88.3	101
[26]	-2.38	-3.46	10.1	92.8	101
[28]	5.85	0.8	9.74	87.9	101
